Experimental data reported in patent US20180200257A1, “METHODS FOR THE TREATMENT OF INFLAMMATORY DISORDERS” (Galapagos NV, priority 2015, published 2018).

Tested on: Subjects With Active Crohn's Disease With Evidence of Mucosal Ulceration
Experiment: Study 3 - SES-CD endoscopic scores
Format: in vivo, human
Conditions: 200 mg, LOCF; for Deep remission (CDAI score < 150 points, SES-CD score ≤ 4, ulcerated subscore ≤ 1 in all 5 segments) / Endoscopic remission (SES-CD % improvement ≤ 4, ulcerated subscore ≤ 1 in all 5 segments) / Endoscopic response (SES-CD % improvement ≥ 50) / Mucosal healing (SES-CD % = 0): 10 weeks
Source text: Double-Blind, Randomized, Placebo-Controlled, Multi-Centre Study to Investigate the Efficacy and Safety of Compound 1 in Subjects With Active Crohn's Disease With Evidence of Mucosal Ulceration. This is a double-blind, randomized, placebo-controlled, multi-centre Phase 2 study to investigate the efficacy and safety of Compound 1 administered once daily for the treatment of active CD with evidence of mucosal ulceration. The pharmacokinetics (including a PK substudy) and pharmacodynamics of Compound 1 and metabolite in CD will also be characterised. A total of 180 eligible subjects will be randomized to receive Compound 1 or placebo in addition to their stable background treatment (eg, corticosteroids, aminosalicylates, or CD-related antibiotics). The study will consist of 2 parts, with total treatment duration of 20 weeks. Randomization in Part 1 will be stratified according the subject's previous anti-TNF exposure/response, CRP level at Screening, and oral corticosteroid use at visit Day −1. After the first 10 weeks of treatment in Part 1, patients will be re-randomized for Part 2 as shown in the diagram below and will be stratified according to the subject's clinical response, previous anti-TNF exposure/response, and oral corticosteroid use at visit Day -1. [table] For the evaluation of disease severity the Crohn's Disease Index of Severity (CDEIS), and the Simple Endoscopic Score for Crohn's Disease (SES-CD) may be used. These are validated scores for the measurement of endoscopic findings, (Sipponen et al, 2010). For the SES-CD, four endoscopic variables in the five segments are scored from 0-3: Variable “presence and size of ulcers” is scored 0 when no ulcers are present, small ulcers (diameter 0.1-0.5 cm) are scored 1, medium-sized ulcers (diameter 0.5-2 cm) 2, and large ulcers (>2 cm) 3. Variable “extent of ulcerated surface” is scored 0 when no ulcers were present, 1 when extent was <10%, 2 when extent is 10%-30%, and 3 when it is >30%. The variable extent of affected surface is scored 0 if none, 1 when <50%, 2 when 50%-75%, and 3 when >75%. The presence and type of narrowings is scored 0 when no narrowings are present, a single passable narrowing is scored 1, multiple passable narrowings are scored 2, and a nonpassable narrowing is scored 3.

[1] = Anti-TNF experienced non-responders
[2] = baseline corticosteroid use: with steroids
[3] = baseline corticosteroid use: without steroids

Compound: O=C(Nc1nc2cccc(-c3ccc(CN4CCS(=O)(=O)CC4)cc3)n2n1)C1CC1 [Compound 1, cyclopropanecarboxylic acid {5-[4-(1,1-dioxo-thiomorpholin-4-ylmethyl)-phenyl]-[1,2,4]triazolo[1,5-a]pyridin-2-yl}-amide]
- Deep remission (CDAI score < 150 points, SES-CD score ≤ 4, ulcerated subscore ≤ 1 in all 5 segments) (Anti-TNF Naïve): 0%
- Endoscopic remission (SES-CD % improvement ≤ 4, ulcerated subscore ≤ 1 in all 5 segments) (Anti-TNF Naïve): 16%
- Endoscopic response (SES-CD % improvement ≥ 50) (Anti-TNF Naïve): 28%
- Mucosal healing (SES-CD % = 0) (Anti-TNF Naïve): 0%
- Deep remission (CDAI score < 150 points, SES-CD score ≤ 4, ulcerated subscore ≤ 1 in all 5 segments) [1]: 6%
- Endoscopic remission (SES-CD % improvement ≤ 4, ulcerated subscore ≤ 1 in all 5 segments) [1]: 12%
- Endoscopic response (SES-CD % improvement ≥ 50) [1]: 23%
- Mucosal healing (SES-CD % = 0) [1]: 1%
- Deep remission (CDAI score < 150 points, SES-CD score ≤ 4, ulcerated subscore ≤ 1 in all 5 segments) [2]: 0%
- Endoscopic remission (SES-CD % improvement ≤ 4, ulcerated subscore ≤ 1 in all 5 segments) [2]: 12%
- Endoscopic response (SES-CD % improvement ≥ 50) [2]: 22%
- Mucosal healing (SES-CD % = 0) [2]: 0%
- Deep remission (CDAI score < 150 points, SES-CD score ≤ 4, ulcerated subscore ≤ 1 in all 5 segments) [3]: 5%
- Endoscopic remission (SES-CD % improvement ≤ 4, ulcerated subscore ≤ 1 in all 5 segments) [3]: 15%
- Endoscopic response (SES-CD % improvement ≥ 50) [3]: 28%
- Mucosal healing (SES-CD % = 0) [3]: 5%
- Deep remission (CDAI score < 150 points, SES-CD score ≤ 4, ulcerated subscore ≤ 1 in all 5 segments) (overall): 8%
- Endoscopic remission (SES-CD % improvement ≤ 4, ulcerated subscore ≤ 1 in all 5 segments) (overall): 14%
- Endoscopic response (SES-CD % improvement ≥ 50) (overall): 25%
- Mucosal healing (SES-CD % = 0) (overall): 2%
- Deep remission (CDAI score < 150 points, SES-CD score ≤ 4, ulcerated subscore ≤ 1 in all 5 segments) (screening CRP ≤ 10 ml/L): 10%
- Endoscopic remission (SES-CD % improvement ≤ 4, ulcerated subscore ≤ 1 in all 5 segments) (screening CRP ≤ 10 ml/L): 16%
- Endoscopic response (SES-CD % improvement ≥ 50) (screening CRP ≤ 10 ml/L): 23%
- Mucosal healing (SES-CD % = 0) (screening CRP ≤ 10 ml/L): 3%
- Deep remission (CDAI score < 150 points, SES-CD score ≤ 4, ulcerated subscore ≤ 1 in all 5 segments) (screening CRP ≥ 10 mg/L): 0%
- Endoscopic remission (SES-CD % improvement ≤ 4, ulcerated subscore ≤ 1 in all 5 segments) (screening CRP ≥ 10 mg/L): 0%
- Endoscopic response (SES-CD % improvement ≥ 50) (screening CRP ≥ 10 mg/L): 28%
- Mucosal healing (SES-CD % = 0) (screening CRP ≥ 10 mg/L): 0%
- SES-CD mean, baseline (Baseline): 14.2
- SES-CD mean CFB, W 10 (week 10): −2.6
- SES-CD mean, W 10 (week 10): 11.6
